Measurements from US6365314B1, “Toner for developing electrostatic image, image forming method and process cartridge” (Canon Kabushiki Kaisha, priority 1994, dated 2002).

Experiment: Solubility measurement of charge control agent in methanol
Assay type: physicochemical
Conditions: stirred 1 hour at 50° C., cooled to room temperature, 0.1 μm-filter, absorbance vs 20 ppm standard
Protocol: The solubility of the charge control agent may be measured in the following manner.
<Solubility measurement of charge control agent>
2 g of a charge control agent is weighed and placed in a 300 ml Erlenmeyer flask to which 100 ml of methanol is added. The system is heated to 50° C. under stirring and the stirring is further continued for 1 hour (when all the charge control agent is dissolved, the charge control agent is further added successively at an increment of 2 g each under continued stirring). Then, the system is cooled to room temperature and the insoluble charge control agent is removed by a 0.1 μm-filter to measure the absorbance (A) of the solution at a maximum absorption wavelength by using a spectrophotometer.
wherein I denotes a transmitted light intensity through a solution, I0 denotes a transmitted light intensity through a solvent (=methanol), ε0 denotes an absorption coefficient, C denotes the concentration of the charge control agent, and d denotes the thickness of the solution for the absorbance measurement.

| SMILES | SMeOH (solubility in methanol) | SMeOH (solubility in methanol) (listed as Azo-type iron complex (1)) [g/100 ml)] |
| --- | --- | --- |
| O=C(Nc1ccccc1)c1cc2ccccc2c2c1[O][Fe]1([O]c3c(Cl)cc(Cl)cc3N=N2)[O]c2c(Cl)cc(Cl)cc2N=Nc2c(c(C(=O)Nc3ccccc3)cc3ccccc23)[O]1 (stereo not shown) [Complex (2)] | SMeOH = 0.75 g/100 ml) |  |
| O=C(Nc1cccc([N+](=O)[O-])c1)c1cc2ccccc2c2c1[O][Fe]1([O]c3ccc(Cl)cc3/N=N/2)[O]c2ccc(Cl)cc2/N=N/c2c(c(C(=O)Nc3cccc([N+](=O)[O-])c3)cc3ccccc23)[O]1 [Complex (3)] | SMeOH = 0.71 g/100 ml) |  |
| O=C(Nc1ccccc1)c1cc2ccccc2c2c1[O][Fe]1([O]c3ccc(Cl)cc3N=N2)[O]c2ccc(Cl)cc2N=Nc2c(c(C(=O)Nc3ccccc3)cc3ccccc23)[O]1 (stereo not shown) [Complex (1)] | SMeOH = 0.87 g/100 ml) | 0.87 |
| Cc1ccccc1NC(=O)c1cc2ccccc2c2c1[O][Fe]1([O]c3ccccc3N=N2)[O]c2ccccc2N=Nc2c(c(C(=O)Nc3ccccc3C)cc3ccccc23)[O]1 (stereo not shown) [Complex (6)] | SMeOH = 0.76 g/100 ml) |  |
| Cc1ccccc1NC(=O)c1cc2ccccc2c2c1[O][Fe]1([O]c3cc(Cl)c([N+](=O)[O-])cc3/N=N/2)[O]c2cc(Cl)c([N+](=O)[O-])cc2/N=N/c2c(c(C(=O)Nc3ccccc3C)cc3ccccc23)[O]1 [Complex (5)] | SMeOH = 0.65 g/100 ml) |  |
| O=C(Nc1cccc([N+](=O)[O-])c1)c1cc2ccccc2c2c1[O][Fe]1([O]c3c(cc(Cl)cc3[N+](=O)[O-])/N=N/2)[O]c2c(cc(Cl)cc2[N+](=O)[O-])/N=N/c2c(c(C(=O)Nc3cccc([N+](=O)[O-])c3)cc3ccccc23)[O]1 [Complex (4)] | SMeOH = 0.65 g/100 ml) |  |
